biological target: T1, purified human IDO protein (Homo sapiens, UniProt P14902); test: Enzymatic IDO assay (kynurenine production, absorbance at 480 nm); format: biochemical; details: hIDO IC50, recombinant human IDO; values reported in ranges
T1 construct: 2 extra amino acids (linker from the BglII cloning site of pQE70); made in house; host or cells: E. coli M15(pREP4) with plasmid pQE70-hIDO
Protocol: The inhibitors were initially diluted in DMSO at 100 mM and were diluted in potassium phosphate 50 mM, added to the reaction mixture at final concentrations raging from 1 mM to 5 nM and preincubated with the enzyme for 5 min at 25° C. The reaction was started by addition of L-tryptophan to 200 μM and incubated 15 min at 37° C. The reaction was stopped by addition of 0.5 vol of 30% trichloroacetic acid and incubated 30 min at 60° C. to hydrolyze N-formylkynurenine to kynurenine. The reaction was centrifuged at 3400 g for 5 min to remove precipitated protein and the supernatant was reacted with 2% (w/v) of p-dimethylaminobenzaldehyde in acetic acid. The reaction was incubated 10 min at 25° C. and read at 480 nm in a spectrophotometer. […] Nonlinear regressions and determination of the IC50 values were performed using the GraphPad Prism 4 software.

T1 sequence (P14902 whole entry P110S/E119G): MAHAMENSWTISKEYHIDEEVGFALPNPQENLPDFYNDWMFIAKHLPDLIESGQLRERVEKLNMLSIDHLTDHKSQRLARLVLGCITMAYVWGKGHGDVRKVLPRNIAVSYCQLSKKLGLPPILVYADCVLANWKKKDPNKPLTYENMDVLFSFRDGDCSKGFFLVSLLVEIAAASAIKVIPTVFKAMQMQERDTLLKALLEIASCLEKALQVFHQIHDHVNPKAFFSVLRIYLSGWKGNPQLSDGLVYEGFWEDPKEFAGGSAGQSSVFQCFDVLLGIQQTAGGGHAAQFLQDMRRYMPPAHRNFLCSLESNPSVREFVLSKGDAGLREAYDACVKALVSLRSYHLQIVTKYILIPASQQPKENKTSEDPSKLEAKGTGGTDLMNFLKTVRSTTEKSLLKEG

| SMILES | IC50 [µM] |
| --- | --- |
| CC(=O)OCCN(C)C(=O)Oc1ccc(Cl)cc1-c1c[nH]cn1 [compound 1253, 2-(((4-chloro-2-(1H-imidazol-4-yl)phenoxy)carbonyl)(methyl)amino)ethyl acetate] | > 100 |
| Oc1c(Cl)cc(Cl)c(OCCC2CCCCC2)c1-c1cnc[nH]1 [compound 1086, 4,6-dichloro-3-(2-cyclohexylethoxy)-2-(1H-imidazol-5-yl)phenol] | > 100 |

same assay, conditions: recombinant human IDO; values reported in ranges; read-out: hIDO IC50

| IC50 [µM] | SMILES |
| --- | --- |
| 1 to 10 | CC(Cc1ccccc1Cl)Oc1ccccc1-c1c[nH]cn1 (stereo not shown) [compound 1043, 4-(2-(1-(2-chlorophenyl)propan-2-yloxy)phen-yl)-1H-imidazole] |
| < 1 | O=C(CC1CCOCC1)Nc1ccc(CCOc2ccccc2-c2c[nH]cn2)c(F)c1 [compound 1295, N-(4-(2-(2-(1H-imidazol-4-yl)phenoxy)ethyl)-3-fluorophenyl)-2-(tetrahydro-2H-pyran-4-yl)acetamide] |
| > 100 | Oc1c(-c2cnc[nH]2)[nH]c2ccccc12 [compound 1048, 2-(1H-imidazol-5-yl)-1H-indol-3-ol] |
| < 1 | N[C@@H]1CCCC[C@H]1NC(=O)Nc1ccc(CCOc2ccccc2-c2c[nH]cn2)c(Cl)c1 (racemic) [compound 1361, 1-(4-(2-(2-(1H-imidazol-4-yl)phenoxy)ethyl)-3-chlorophenyl)-3-(±(1R,2R)-2-aminocyclohexyl)urea] |
| 1 to 10 | O=C(Nc1cccc(OC2CCOC2)c1)Nc1ccc(CCOc2ccccc2-c2c[nH]cn2)c(Cl)c1 (stereo not shown) [compound 1346, 1-(4-(2-(2-(1H-imidazol-4-yl)phenoxy)ethyl)-3-chlorophenyl)-3-(3-(tetrahydrofuran-3-yloxy)phenyl)urea] |
| 1 to 10 | Oc1ccc(Cl)c(OCCC2CCCCC2)c1-c1cnc[nH]1 [compound 1172, 4-chloro-3-(2-cyclohexylethoxy)-2-(1H-imidazol-5-yl)phenol] |
| 1 to 10 | O=C(O)c1ccc(C(=O)Nc2ccc(CCOc3ccccc3-c3c[nH]cn3)cc2)cc1 [compound 1270, 4-((4-(2-(2-(1H-imidazol-4-yl)phenoxy)ethyl)phenyl)carbamoyl)benzoic acid] |
| 10 to 100 | CC(C)(C)CC(=O)N1CCC(CCOc2ccccc2-c2c[nH]cn2)CC1 [compound 1143, 1-(4-(2-(2-(1H-imidazol-4-yl)phenoxy)ethyl)piperidin-1-yl)-3,3-dimethylbutan-1-one] |
| 1 to 10 | O=C(CN1CCOCC1)Nc1ccc(CCOc2ccccc2-c2c[nH]cn2)cc1 [compound 1214, N-(4-(2-(2-(1H-imidazol-4-yl)phenoxy)ethyl)phenyl)-2-morpholinoacetamide] |
| 10 to 100 | CC(=O)N(Cc1ccccc1)Cc1cccc(COc2ccccc2-c2c[nH]cn2)c1 [compound 959, N-(3-((2-(1H-imidazol-4-yl)phenoxy)methyl)benzyl)-N-benzylacetamide] |
| 10 to 100 | CC(O)(COc1ccccc1-c1c[nH]cn1)c1cccs1 (stereo not shown) [compound 977, 1-(2-(1H-imidazol-4-yl)phenoxy)-2-(thiophen-2-yl)propan-2-ol] |
| 10 to 100 | Oc1cccc(OCCN2CCOCC2)c1-c1cnc[nH]1 [compound 1231, 2-(1H-imidazol-5-yl)-3-(2-morpholinoethoxy) phenol] |
| 1 to 10 | O=C(Cc1cnccn1)Nc1ccc(CCOc2ccccc2-c2c[nH]cn2)cc1 [compound 1156, N-(4-(2-(2-(1H-imidazol-4-yl)phenoxy)ethyl)phenyl)-2-(pyrazin-2-yl)acetamide] |
| 10 to 100 | Fc1ccc(COc2ccccc2-c2c[nH]cn2)cc1 [compound 1022, 4-(2-(4-fluorobenzyloxy)phenyl)-1H-imidazole] |
| 1 to 10 | Nc1ccc(CCOc2ccccc2-c2c[nH]cn2)cc1 [compound 1078, 4-(2-(2-(1H-imidazol-4-yl)phenoxy)ethyl) aniline] |
| 1 to 10 | CC(C)(C)C(=O)Nc1ccc(CCOc2ccccc2-c2c[nH]cn2)cc1 [compound 1101, N-(4-(2-(2-(1H-imidazol-4-yl)phenoxy)ethyl)phenyl)pivalamide] |
| > 100 | Nn1cncc1-c1ccccc1 [compound 1115, 5-phenyl-1H-imidazol-1-amine] |

| IC50 [µM] | SMILES |
| --- | --- |
| < 1 | COC(=O)c1cccc(C(=O)Nc2ccc(CCOc3ccccc3-c3c[nH]cn3)cc2)c1 [compound 1261, methyl 3-((4-(2-(2-(1H-imidazol-4-yl)phenoxy)ethyl)phenyl)carbamoyl)benzoate] |
| 10 to 100 | c1ccc(-c2c[nH]cn2)c(OCCc2csc3ccccc23)c1 [compound 1202, 4-(2-(2-(benzo[b]thiophen-3-yl)ethoxy)phenyl)-1H-imidazole] |
| 10 to 100 | Brc1ccc(OCCC2CCCCC2)c(-c2c[nH]cn2)c1 [compound 1016, 4-(5-bromo-2-(2-cyclohexylethoxy)phenyl)-1H-imidazole] |
| 10 to 100 | c1ccc(-c2c[nH]cn2)c(OCc2cscn2)c1 [compound 1289, 4-((2-(1H-imidazol-4-yl)phenoxy)methyl) thiazole] |
| 10 to 100 | c1ccc(-c2c[nH]cn2)c(OCCc2ccc(N3CCCCC3)cc2)c1 [compound 1223, 1-(4-(2-(2-(1H-imidazol-4-yl)phenoxy)ethyl)phenyl)piperidine] |
| > 100 | CC(=O)NCc1ccccc1-c1c[nH]cn1 [compound 1207, N-(2-(1H-imidazol-4-yl)benzyl)acetamide] |
| 1 to 10 | O=C(O)c1cccc(C(=O)Nc2ccc(CCOc3ccccc3-c3c[nH]cn3)cc2)c1 [compound 1276, 3-((4-(2-(2-(1H-imidazol-4-yl)phenoxy)ethyl)phenyl)carbamoyl)benzoic acid] |
| 10 to 100 | Oc1cc(F)ccc1-c1cnc[nH]1 [compound 1120, 5-fluoro-2-(1H-imidazol-5-yl)phenol] |
| 10 to 100 | Oc1ccc(-c2ccccc2)cc1-c1c[nH]cn1 [compound 1005, 3-(1H-imidazol-4-yl)biphenyl-4-ol] |
| > 100 | CC1Cn2cncc2-c2ccccc21 (stereo not shown) [compound 1137, 6-methyl-5,6-dihydroimidazo[5,1-a]isoquino-line] |
| 10 to 100 | O=C(CN1CCCCCC1)Nc1ccc(CCOc2ccccc2-c2c[nH]cn2)cc1 [compound 1219, N-(4-(2-(2-(1H-imidazol-4-yl)phenoxy)ethyl)phenyl)-2-(azepan-1-yl)acetamide] |
| 1 to 10 | O=C(Nc1ccc(CCOc2ccccc2-c2c[nH]cn2)cc1)c1cc(=O)[nH]c(=O)[nH]1 [compound 1272] |
| 1 to 10 | O=C(O)c1ccccc1C(=O)Nc1ccc(CCOc2ccccc2-c2c[nH]cn2)cc1 [compound 1285, 2-((4-(2-(2-(1H-imidazol-4-yl)phenoxy)ethyl)phenyl)carbamoyl)benzoic acid] |
| 10 to 100 | Oc1cccc(OCCC2CCCO2)c1-c1cnc[nH]1 (stereo not shown) [compound 1235, 2-(1H-imidazol-5-yl)-3-(2-(tetrahydrofuran-2-yl)ethoxy)phenol] |
| > 100 | Oc1ncccc1-c1c[nH]cn1 [compound 1015, 3-(1H-imidazol-4-yl)pyridin-2-ol] |
| 1 to 10 | C1=CCC(CCOc2ccccc2-c2c[nH]cn2)CC1 (stereo not shown) [compound 1191, 4-(2-(2-(cyclohex-3-en-1-yl)ethoxy)phenyl)-1H-imidazole] |

| SMILES | IC50 [µM] |
| --- | --- |
| OC(c1ccccc1)c1c[nH]cn1 (stereo not shown) [compound 1006, (1H-imidazol-4-yl)(phenyl)methanol] | > 100 |
| CC(C)N(C(=O)Oc1ccc(Cl)cc1-c1c[nH]cn1)C(C)C [compound 1085, 4-chloro-2-(1H-imidazol-4-yl)phenyl diisopropylcarbamate] | > 100 |

Reference: patent US8722720B2, “Imidazole derivatives as IDO inhibitors” (NewLink Genetics Corporation, priority 2010, dated 2014)
